Test results: patent publication US8019550B2, “Drug discovery method” (Keddem Bioscience Ltd., priority 2002, dated 2011)

Biological target: T1, HIV-1 Protease (Human immunodeficiency virus type 1 group M subtype B, UniProt P04585)
T1 construct: effect on HIV-1 Protease
Assay: assay of selected molecules for activity (effect on HIV-1 Protease)
Format: biochemical
Details: various concentrations (between 10 and 1000 micro-molar)
Protocol: A set of molecules including the triangle measures were selected and physically assayed and shown to have the expected binding to HIV-1 Protease.
The triplets were used as a query input for a search in MDL's ACD-SC (available chemical directory for screening).
All of molecules were actually assayed and appeared to show activity (effect on HIV-1 Protease) at various concentrations (between 10 and 1000 micro-molar). […] Also molecules 34-39 were assayed, with no activity shown, as expected.

| SMILES | activity (effect on HIV-1 Protease) |
| --- | --- |
| O=C1C2C(c3ccccc3)NC(c3ccccc3)C1C(c1ccccc1)OC2c1ccccc1 (centres unmarked) [compound 7] | active |
| Cc1c(-c2ccccc2)c(=O)n(C)c2c1c(=O)n(-c1ccccc1)c(=O)n2-c1ccccc1 [compound 27] | active |
